From PubChem BioAssay (NCI)
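Five compound concentrations were applied to cells in 96-well plates for 48 hours; endpoints were derived by simple linear interpolation of the resulting dose-response curve. GI50: concentration for 50% inhibition of growth. Definition used: TGI = concentration required for complete inhibition of growth.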

Legend:
Assay in all cases: inhibition of tumour cell growth, NCI panel, 48 h
[1] = test system: 786-0 renal
[2] = test system: A498 renal
[3] = test system: A549 NSCLC
[4] = test system: ACHN renal
[5] = test system: BT-549 breast
[6] = test system: CAKI-1 renal
[7] = test system: CCRF-CEM leukemia
[8] = test system: COLO 205 colon
[9] = test system: DU-145 prostate
[10] = test system: EKVX NSCLC
[11] = test system: HCT-116 colon
[12] = test system: HCT-15 colon
[13] = test system: HL-60(TB) leukemia
[14] = test system: HOP-62 NSCLC
[15] = test system: HOP-92 NSCLC
[16] = test system: HS 578T breast
[17] = test system: HT29 colon
[18] = test system: IGROV1 ovarian
[19] = test system: K-562 leukemia
[20] = test system: KM12 colon
[21] = test system: LOX IMVI melanoma
[22] = test system: M14 melanoma
[23] = test system: MALME-3M melanoma
[24] = test system: MCF7 breast
[25] = test system: MDA-MB-231 breast
[26] = test system: MDA-MB-435
[27] = test system: MDA-MB-468 breast
[28] = test system: MOLT-4 leukemia
[29] = test system: NCI-H226 lung
[30] = test system: NCI-H23 lung
[31] = test system: NCI-H460 lung
[32] = test system: NCI-H522 lung
[33] = test system: NCI/ADR-RES ovarian
[34] = test system: OVCAR-3 ovarian
[35] = test system: OVCAR-4 ovarian
[36] = test system: OVCAR-5 ovarian
[37] = test system: OVCAR-8 ovarian
[38] = test system: RPMI-8226 leukemia
[39] = test system: RXF 393 renal
[40] = test system: SF-268 CNS
[41] = test system: SF-295 CNS
[42] = test system: SF-539 CNS
[43] = test system: SK-MEL-2 melanoma
[44] = test system: SK-MEL-5 melanoma
[45] = test system: SK-OV-3 ovarian
[46] = test system: SN12C renal
[47] = test system: SNB-19 CNS
[48] = test system: SNB-75 CNS
[49] = test system: SR leukemia
[50] = test system: T-47D breast
[51] = test system: TK-10 renal
[52] = test system: U251 CNS
[53] = test system: UACC-257 melanoma
[54] = test system: UO-31 renal

## COc1ccc2[nH]c(O)c(N=Nc3nc(-c4ccc(Cl)cc4)cs3)c2c1
[1]
  GI50: 1600 nM
  TGI: 3.09 µM
[2]
  GI50: 2220 nM
  TGI: 4.94 µM
[3]
  GI50: 2080 nM
  TGI: 5.09 µM
[4]
  GI50: 2900 nM
  TGI: 8.71 µM
[5]
  GI50: 3.21 µM
  TGI: 28.3 µM
[6]
  GI50: 6.7 µM
  TGI: 30.6 µM
[7]
  GI50: 4.1 µM
  TGI: > 100 µM
[8]
  GI50: 3.1 µM
  TGI: > 100 µM
[9]
  GI50: 3.61 µM
  TGI: 30.9 µM
[10]
  GI50: 2700 nM
  TGI: 21.4 µM
[11]
  GI50: 1880 nM
  TGI: 3.75 µM
[12]
  GI50: 1930 nM
  TGI: 4.14 µM
[13]
  GI50: > 100 µM
  TGI: > 100 µM
[14]
  GI50: 2610 nM
  TGI: 9.06 µM
[15]
  GI50: 1920 nM
  TGI: 4.88 µM
[16]
  GI50: 4.54 µM
  TGI: 99.7 µM
[17]
  GI50: 3.52 µM
  TGI: 50.8 µM
[18]
  GI50: 4.51 µM
  TGI: 60.8 µM
[19]
  GI50: 3.49 µM
  TGI: > 100 µM
[20]
  GI50: 3.15 µM
  TGI: > 100 µM
[21]
  GI50: 1900 nM
  TGI: 4.08 µM
[22]
  GI50: 1990 nM
  TGI: 5.29 µM
[23]
  GI50: 1740 nM
  TGI: 3.37 µM
[24]
  GI50: 2530 nM
  TGI: 16.7 µM
[25]
  GI50: 2730 nM
  TGI: 8.19 µM
[26]
  GI50: 5.86 µM
  TGI: > 100 µM
[27]
  GI50: 1450 nM
  TGI: 3.24 µM
[28]
  GI50: 3.26 µM
  TGI: > 100 µM
[29]
  GI50: 3 µM
  TGI: 12.4 µM
[30]
  GI50: 2120 nM
  TGI: 5.62 µM
[31]
  GI50: 2680 nM
  TGI: 6.25 µM
[32]
  GI50: 2090 nM
  TGI: 6.38 µM
[33]
  GI50: 1920 nM
  TGI: 4.03 µM
[34]
  GI50: 1810 nM
  TGI: 3.53 µM
[35]
  GI50: 1830 nM
  TGI: 3.54 µM
[36]
  GI50: 3.09 µM
  TGI: 17 µM
[37]
  GI50: 1860 nM
  TGI: 3.71 µM
[38]
  GI50: 3.91 µM
  TGI: > 100 µM
[39]
  GI50: 1670 nM
  TGI: 3.29 µM
[40]
  GI50: 4.41 µM
  TGI: > 100 µM
[41]
  GI50: 5.01 µM
  TGI: 20.6 µM
[42]
  GI50: 1980 nM
  TGI: 4.22 µM
[43]
  GI50: 3.14 µM
  TGI: 34.4 µM
[44]
  GI50: 4.1 µM
  TGI: 19.4 µM
[45]
  GI50: 3.07 µM
  TGI: 19.7 µM
[46]
  GI50: 1930 nM
  TGI: 4.42 µM
[47]
  GI50: 4.56 µM
  TGI: 38.3 µM
[48]
  GI50: 3.36 µM
  TGI: 17.5 µM
[49]
  GI50: 4.69 µM
  TGI: > 100 µM
[50]
  GI50: 1830 nM
  TGI: 5.97 µM
[51]
  GI50: 9.16 µM
  TGI: 32.3 µM
[52]
  GI50: 2060 nM
  TGI: 4.18 µM
[53]
  GI50: 6.52 µM
  TGI: > 100 µM
[54]
  GI50: 3.3 µM
  TGI: 16.3 µM
